This is an account of results in patent publication US8901074B2, “Methods of treating autoimmune diseases of the central nervous system (CNS) and neurodegenerative diseases” (Ramot at Tel-Aviv University, priority 2010, dated 2014).

Where no end group is shown, it is not given here.

A short description of data set [1]: Toxicity monitoring (body weight, eating habits, tail tone, mobility) in APP mice. It is filed as in vivo. The note with it: 1.07 μg/mouse every other day for 4 months. The method, then: 8-week-old APP/PSI mice were used as previously described (Oakley et al 2006, J Neurosci 26: 10129-10140). Mice were treated with either ADT21 (1.07 μg/mouse) or PBS every other day for 4 months.
Contextual fear conditioning was tested as described previously (Carlos A. et al., 2005) Mice were placed within the conditioning chamber (Coulbourn Instruments, Allentown, Pa.) (7″W×7″D×12″H) for 3 min before the onset of the unconditioned stimulus (US; footshock; 1 s/1 mA) through the cage grid floor (Model H10-11M-TC-SF) from a Coulbourn Instruments shocker (Model H13-15). Activation was detected via a camera above the cage (ACT-VP-01) with a special algorithm for motion detection, to allow them to develop a representation of the context via exploration. After the shock, mice were left in the chamber for 2 min (immediate freezing) and returned to their home cages. 24 hours after the training session, the mice were again placed in the chamber and tested for 4 min without any footshocks. The chamber was isolated in a quiet environment using the noise sealed box (H10-24T Coulbourn Instruments). Freezing response was scored by using the FreezeFrame automated system (Coulbourn Instruments). Furthermore, mice were daily monitored for body weight, eating habits, tail tone and mobility.

The target of data set [2] is T1, insulin degrading enzyme (IDE) (Homo sapiens, UniProt P14735).
T1 sequence (P14735 1-1019): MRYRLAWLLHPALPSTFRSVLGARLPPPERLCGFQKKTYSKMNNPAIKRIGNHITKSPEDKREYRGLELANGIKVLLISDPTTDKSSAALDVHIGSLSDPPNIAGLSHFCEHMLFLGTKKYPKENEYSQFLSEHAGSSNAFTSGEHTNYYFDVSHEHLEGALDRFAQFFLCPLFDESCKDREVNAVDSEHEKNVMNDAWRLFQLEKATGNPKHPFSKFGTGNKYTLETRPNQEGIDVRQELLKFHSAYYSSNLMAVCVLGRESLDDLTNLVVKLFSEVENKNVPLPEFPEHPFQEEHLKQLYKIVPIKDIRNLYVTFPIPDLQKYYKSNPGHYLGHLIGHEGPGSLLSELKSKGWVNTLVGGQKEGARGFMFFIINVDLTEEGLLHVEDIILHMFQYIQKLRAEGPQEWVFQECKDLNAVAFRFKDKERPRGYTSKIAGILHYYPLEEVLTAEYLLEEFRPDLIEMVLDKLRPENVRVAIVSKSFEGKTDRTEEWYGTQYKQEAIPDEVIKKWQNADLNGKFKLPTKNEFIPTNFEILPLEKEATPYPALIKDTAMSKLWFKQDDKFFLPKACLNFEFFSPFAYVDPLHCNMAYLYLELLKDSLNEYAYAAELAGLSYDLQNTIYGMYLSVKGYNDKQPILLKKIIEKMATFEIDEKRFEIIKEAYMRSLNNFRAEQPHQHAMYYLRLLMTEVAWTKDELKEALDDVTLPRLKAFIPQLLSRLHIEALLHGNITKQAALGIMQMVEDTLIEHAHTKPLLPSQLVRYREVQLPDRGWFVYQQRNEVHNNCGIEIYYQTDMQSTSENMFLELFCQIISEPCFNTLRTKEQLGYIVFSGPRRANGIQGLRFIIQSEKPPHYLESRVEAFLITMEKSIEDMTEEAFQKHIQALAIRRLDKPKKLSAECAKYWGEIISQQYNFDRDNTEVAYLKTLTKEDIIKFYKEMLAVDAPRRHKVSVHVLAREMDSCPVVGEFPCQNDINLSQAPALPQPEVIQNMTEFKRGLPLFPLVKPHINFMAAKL
Kind of data set: IDE enzymatic activity inhibition. It is filed as biochemical. The method, then:
The IDE inhibitor of the present teachings specifically down-regulates the enzymatic activity of IDE. For instance, the IC50 of IDE is in the range of 10-200 nM as assayed for ADT-21. According to exemplary embodiments, the IDE inhibitor of the present invention is capable of down-regulating by at least 5%, at least 10%, at least 15%, at least 20%, at least 30%, at least 40%, at least 50%, at least 60%, at least 70%, at least 80%, at least 90% or at least 100% the enzymatic activity of IDE.
Any method known in the art for measuring IDE activity may be used to assess down-regulation in IDE. For example, one method which may be used comprises the use of an Insulysin/IDE Immunocapture Activity Assay Kit (available e.g. from InnoZyme™, Calbiochem). Using this kit ELISA plates are first coated with the target enzyme (i.e. IDE) and then the plates are incubated with a substrate (e.g. insulin). The enzymatic activity is measured in comparison to wells without the substrate using for example a FRET substrate, Mca-GGFLRKHGQ-EDDnp (SEQ ID NO: 79). Cleavage of the scissile amide bond between R and K releases the fluorophore from the quenching molecule, Dnp, resulting in an increase in fluorescence. The increase in fluorescence is measured using an excitation wavelength of 320 nm and an emission wavelength of 405 nm.

The IC50 is the point on the concentration scale where inhibition reaches its midpoint. For ITNPGSGGSSVLRYDDFHTD [ADT21], the “changes in behavior indicating toxicity (body weight, eating habits, tail tone, mobility)” value in data set [1] was “no changes in their behavior”. The sequence further returned a 50% inhibitory concentration (IC50) in data set [2] of 0.01 to 0.2 µM.
